The IC50 is the point on the concentration scale where inhibition reaches its midpoint.

This is an account of results in patent US20200352918A1, “COMPOUNDS AND METHODS FOR TREATING OR PREVENTING FIBROSIS” (priority 2019, published 2020).

Common to all, as to type: cell-based, human
For experiment [1], the system named is iFA phenotype of mesenchymal-like cells on 13 kPa hydrogels. Nature of the experiment: iFA-prevention phenotypic high-content drug screen (iFA model). As for the experimental part: Mesenchymal-like cells were cultured on 13 kPa functionalized polyacrylamide gels that were prepared as follows. 187.5 μl of 40% acrylamide, 60 μl of 2% bis-acrylamide and 8.55 μl of sodium bisulfate in a final volume of 990 μl of water was incubated for 20 min at room temperature to degas the mixture. To this mixture, 0.10% ammonium persulfate and 0.15% TEMED were added, mixed and 100 μl of the solution was added onto a 0.4% 3-(Trimethoxysily) propyl methacrylate pH 3.5 treated coverslip. A 2% dimethyl dichlorosilane in chloroform treated round glass coverslip was then inverted on the acrylamide solution and allowed to polymerize for 15 min between the two surfaces. The top coverslip was gently removed, and the bottom coverslips with the hydrogel were transferred to appropriate multi-well low adherent tissue culture plate containing coupling buffer (0.1 M sodium phosphate dibasic, 0.1 M sodium phosphate monobasic) pH 8. To functionalize the hydrogel, 1 part of 0.1 M p-benzoquinone in dioxane was added to the hydrogels containing 4 parts of coupling buffer and incubated at 37° C. for 30 min. The gel was then successively washed with 20% dioxane in water, water, 0.1 M sodium acetate buffer at pH 4.0 containing 1.0 M sodium chloride, 0.1 M sodium bicarbonate solution at pH 8.5 containing 1.0 M sodium chloride, and finally with coupling buffer at pH 7.5. The hydrogels were then coated with 0.1% gelatin for 2 hrs prior to seeding the cells. Cells were seeded at a density of 3000 cells/cm^2.
A phenotypic high-content drug screen was prepared to identify compounds capable of preventing the iFA phenotype in a 96-well format. An ImageXpress XL high-throughput imager with a 4× Plan objective (N/A 0.20) was used with image based focusing. Briefly, 100 μL media were plated in each well of 96 well plate using a Thermo Multidrop non-contact dispenser. Using a custom V&P pin tool mounted to a Beckman FX liquid handler, 1.5 μL compounds or DMSO were added. Mesenchymal-like cells were added as a suspension using the Multidrop at a density of 3.5×10^3 cells/well. The resulting compound concentration was 10 μM. Cells were imaged after 7 days of incubation at 37° C. and 5% CO2: A final of 0.5 μg/ml of Calcein AM and/or 10 μg/ml propidium iodide (viability dye) with 1 μg/ml Hoechst 33342 were added and imaged using the ImageXpress XL system. Data mining was performed using a custom module consisting of the following steps: The image background was removed using a top-hat filter with 25 μm round shape polisher. Next, cellular aggregates and individual spindle-shaped cells were identified. Aggregates of cells were defined by size with a cut-off of 60 to 200 micron and an intensity of at least 200 gray scales over background. Individual spindle-shaped cells were identified as smaller objects with cut-offs from 15 to 100 micron and a lower intensity of at least 70 gray scales over background.
Additional morphometric measurements were made by counting labeled cell nuclei and measuring total area covered with cells per well. The data resulting from the screen were batch exported through MetaXpress and uploaded into a Collaborative Drug Discovery (CDD) cloud based database (Ekins and Bunin, 2013, Methods in molecular biology 993, 139-154.). Hits were selected on a cut-off of more than 3 standard deviations from mean using data normalized to reference wells in each plate. IC50 values (the half maximal inhibitory concentration) from confirmation experiments were calculated from dose-response signal curves using the Prism software (GraphPad Software).
Signal-to-background (S/B) ratio, standard variation and variation coefficients were calculated as the signal of DMSO treated wells divided by the signal of the hit compound (AA5) treated wells. […]

The test system of the next experiment is iFA model. Nature of the experiment: Proliferation by EdU labeling in the iFA model. The settings on record: AA5-prevention vs DMSO, 6 h EdU. As for the experimental part: Cells were incubated with 10 μM EdU (Invitrogen) at specified time points of culture for 6 hrs, fixed with 4% PFA, and detected by staining with Alexa594-azide according to the manufacturer's instructions. The cells were additionally counterstained with Vimentin and/or α-SMA and DAPI.

The subject of the next experiment is HMGB1. Nature of the experiment: HMGB1 (ELISA, IF) in the iFA model. As to the method: Conditioned media at different time points of progression of the phenotype, and on prevention and resolution drug treatments were collected and quantification of protein was performed using the IBL man HMGB1 ELISA kit or LSBio NPTX1 ELISA kits per manufacturer's instructions. 10 μl of each supernatant sample was added to anti-HMGB1 polyclonal antibody-coated plate and incubated for 20 hours at 37° C. All liquid was then removed and the plate manually washed 5 times with wash buffer. 100 μl of enzyme conjugate was then added and incubated for 2 hours at room temperature. After washing again, color solution was added at 100 μl per well and incubated for 30 minutes at room temperature. Following an additional five washes, the plate was incubated with 90 μl of TMB substrate for another 15 minutes at 37° C. in the dark. The reaction was then stopped by addition 100 μl of stop solution. Absorbance was measured at 450 nm using a SpectraMAX Plate Reader. Data was analyzed using SoftMax Pro software.
Cells grown on coverslips were fixed in 4% paraformaldehyde (PFA) for 10 min at room temperature and washed three times with TBS buffer supplemented with 0.1% Tween 20 (TBST). Lung samples were fixed overnight in 4% PFA at room temperature, washed 3 times in PBS, dehydrated and then infiltrated and embedded with wax. Five-micron sections were collected on glass slides, deparaffinized and rehydrated. […]
Background: An ELISA detects its analyte on a solid surface through an enzyme-linked reagent.

“Also recorded” adds a separate entry of the source.

Consider `Cc1c(C(=O)Nc2nc3ccccc3s2)sc2nc3cc4c(cc3cc12)OCO4` [AA5], for which the “Prevention of the iFA phenotype” value in experiment [1] (0.6 μM-10 μM AA5, Calcein AM / Hoechst 33342 (FIG. 17A)) is “Full prevention of phenotype was seen at low micromolar concentrations”. In addition, in experiment [1] (20 point dose course, picomolar to millimolar), the Dose response result is recorded as “+++ (+++ = strong effect)”. Besides, in experiment [1] (Homo sapiens, FIG. 16B, read-out: IC50 (dose response, iFA phenotype)), the IC50 turned out to be 900 nM. Also, the “Efficacy in secondary screen” value in experiment [1] (assay repeated with compound sourced commercially or from additional library materials) was “+++ (+++ = strong effect)”. Also, the “Efficacy in primary screen” value in experiment [1] (library compound plated with cells on day 1 on hydrogel, phenotype on day 7, 10 μM) is reported as “+++ (+++ = strong effect)”. Further, in the experiment with iFA model, the “Proliferation (EdU)” value is listed as “no effect on proliferation; also recorded: did not display any significant difference in the proliferation rate”. In addition, the “Cytoplasmic HMGB1 (IF staining)” value in the experiment on HMGB1 (AA5-prevention and AA5-resolution vs DMSO) is recorded as “absence or significantly reduced cytoplasmic HMGB1”. Besides, the “Secreted levels of HMGB1” value with HMGB1 (iFA model, AA5p and AA5r vs DMSO) is on record as “attenuated”.
